Reference: patent publication US12319664B2, “Herbicidally active 3-phenylisoxazoline-5-carboxamides of cyclopentenylcarboxylic acid derivatives” (Bayer Aktiengesellschaft, priority 2018, dated 2025)

Assays:
[1] = system: ABUTH; test: Pre-emergence herbicidal action against ABUTH; format: in vivo, Abutilon theophrasti; conditions: application rate 80 g/ha, scored visually after about 3 weeks vs untreated controls (100% = plants have died, 0% = like control plants)
Text: (§1) 1. Pre-emergence herbicidal action against harmful plants and crop plant compatibility Seeds of monocotyledonous and dicotyledonous weed plants and crop plants are placed in plastic or wood-fibre pots and covered with soil. The compounds of the invention, formulated in the form of wettable powders (WP) or as emulsion concentrates (EC), are then applied onto the surface of the covering soil as aqueous suspension or emulsion with addition of 0.5% additive at a water application rate of 600 l/ha (converted). After the treatment, the pots are placed in a greenhouse and kept under good growth conditions for the trial plants. After about 3 weeks, the effect of the preparations is scored visually in comparison with untreated controls as percentages. For example, 100% activity=the plants have died, 0% activity=like control plants. [table]

[2] = system: AMARE; test: Pre-emergence herbicidal action against AMARE; format: in vivo, Amaranthus retroflexus; conditions: application rate 80 g/ha
Text: as §1

[3] = system: AMARE; test: Post-emergence herbicidal action against AMARE; format: in vivo, Amaranthus retroflexus; conditions: application rate 80 g/ha, rated visually about 3 weeks after treatment
Summary of the method: (§2)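 Aqueous suspensions or emulsions of WP/EC formulations containing 0.5% additive are sprayed at 600 l/ha onto plants at the one-leaf stage. After about 3 weeks in the greenhouse, activity is rated by eye versus untreated controls.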

[4] = system: ABUTH; test: Post-emergence herbicidal action against ABUTH; format: in vivo, Abutilon theophrasti; conditions: application rate 80 g/ha, rated visually about 3 weeks after treatment
Summary of the method: as §2

[5] = system: POLCO; test: Post-emergence herbicidal action against POLCO; format: in vivo, Polygonum convolvulus; conditions: application rate 80 g/ha, rated visually about 3 weeks after treatment
Summary of the method: as §2

[6] = system: VIOTR; test: Pre-emergence herbicidal action against VIOTR; format: in vivo, Viola tricolor; conditions: application rate 80 g/ha
Text: as §1

[7] = system: ALOMY; test: Pre-emergence herbicidal action against ALOMY; format: in vivo, Alopecurus myosuroides; conditions: application rate 80 g/ha, scored visually after about 3 weeks vs untreated controls (100% = plants have died, 0% = like control plants)
Text: as §1

[8] = system: AVEFA; test: Pre-emergence herbicidal action against AVEFA; format: in vivo, Avena fatua; conditions: application rate 80 g/ha, scored visually after about 3 weeks vs untreated controls (100% = plants have died, 0% = like control plants)
Text: as §1

[9] = system: STEME; test: Post-emergence herbicidal action against STEME; format: in vivo, Stellaria media; conditions: application rate 80 g/ha, rated visually about 3 weeks after treatment
Summary of the method: as §2

[10] = system: STEME; test: Pre-emergence herbicidal action against STEME; format: in vivo, Stellaria media; conditions: application rate 80 g/ha
Text: as §1

[11] = system: LOLRI; test: Post-emergence herbicidal action against LOLRI; format: in vivo, Lolium rigidum; conditions: application rate 80 g/ha, rated visually after about 3 weeks
Summary of the method: as §2

[12] = system: SETVI; test: Pre-emergence herbicidal action against SETVI; format: in vivo, Setaria viridis; conditions: application rate 80 g/ha, scored visually after about 3 weeks vs untreated controls (100% = plants have died, 0% = like control plants)
Text: as §1

[13] = system: AVEFA; test: Post-emergence herbicidal action against AVEFA; format: in vivo, Avena fatua; conditions: application rate 80 g/ha, rated visually after about 3 weeks
Summary of the method: as §2

[14] = system: PHBPU; test: Post-emergence herbicidal action against PHBPU; format: in vivo, Pharbitis purpurea; conditions: application rate 80 g/ha, rated visually about 3 weeks after treatment
Summary of the method: as §2

[15] = system: SETVI; test: Post-emergence herbicidal action against SETVI; format: in vivo, Setaria viridis; conditions: application rate 80 g/ha, rated visually after about 3 weeks
Summary of the method: as §2

[16] = system: POLCO; test: Pre-emergence herbicidal action against POLCO; format: in vivo, Polygonum convolvulus; conditions: application rate 80 g/ha
Text: as §1

[17] = system: ALOMY; test: Post-emergence herbicidal action against ALOMY; format: in vivo, Alopecurus myosuroides; conditions: application rate 80 g/ha, rated visually after about 3 weeks
Summary of the method: as §2

[18] = system: LOLRI; test: Pre-emergence herbicidal action against LOLRI; format: in vivo, Lolium rigidum; conditions: application rate 80 g/ha, scored visually after about 3 weeks vs untreated controls (100% = plants have died, 0% = like control plants)
Text: as §1

[19] = system: VERPE; test: Post-emergence herbicidal action against VERPE; format: in vivo, Veronica persica; conditions: application rate 80 g/ha
Summary of the method: as §2

[20] = system: PHBPU; test: Pre-emergence herbicidal action against PHBPU; format: in vivo, Pharbitis purpurea; conditions: application rate 80 g/ha
Text: as §1

[21] = system: ECHCG; test: Pre-emergence herbicidal action against ECHCG; format: in vivo, Echinochloa crus-galli; conditions: application rate 80 g/ha, scored visually after about 3 weeks vs untreated controls (100% = plants have died, 0% = like control plants)
Text: as §1

[22] = system: VERPE; test: Pre-emergence herbicidal action against VERPE; format: in vivo, Veronica persica; conditions: application rate 80 g/ha
Text: as §1

[23] = system: HORMU; test: Pre-emergence herbicidal action against HORMU; format: in vivo, Hordeum murinum; conditions: application rate 80 g/ha
Text: as §1

[24] = system: HORMU; test: Post-emergence herbicidal action against HORMU; format: in vivo, Hordeum murinum; conditions: application rate 80 g/ha
Summary of the method: as §2

[25] = system: ECHCG; test: Post-emergence herbicidal action against ECHCG; format: in vivo, Echinochloa crus-galli; conditions: application rate 80 g/ha, rated visually after about 3 weeks
Summary of the method: as §2

[26] = system: VIOTR; test: Post-emergence herbicidal action against VIOTR; format: in vivo, Viola tricolor; conditions: application rate 80 g/ha, rated visually about 3 weeks after treatment
Summary of the method: as §2

[27] = system: MATIN; test: Pre-emergence herbicidal action against MATIN; format: in vivo, Matricaria inodora; conditions: application rate 80 g/ha, scored visually after about 3 weeks vs untreated controls (100% = plants have died, 0% = like control plants)
Text: as §1

[28] = system: MATIN; test: Post-emergence herbicidal action against MATIN; format: in vivo, Matricaria inodora; conditions: application rate 80 g/ha, rated visually about 3 weeks after treatment
Summary of the method: as §2

| SMILES | Herbicidal action against [%] AMARE [2] | Herbicidal action against [%] AMARE [3] | Herbicidal action against [%] POLCO [5] | Herbicidal action against [%] VIOTR [6] | Herbicidal action against [%] ALOMY [7] | Herbicidal action against [%] AVEFA [8] | Herbicidal action against [%] STEME [9] | Herbicidal action against [%] STEME [10] | Herbicidal action against [%] LOLRI [11] | Herbicidal action against [%] SETVI [12] | Herbicidal action against [%] AVEFA [13] | Herbicidal action against [%] SETVI [15] | Herbicidal action against [%] POLCO [16] | Herbicidal action against [%] ALOMY [17] | Herbicidal action against [%] LOLRI [18] | Herbicidal action against [%] PHBPU [20] | Herbicidal action against [%] ECHCG [21] | Herbicidal action against [%] HORMU [23] | Herbicidal action against [%] ECHCG [25] | Herbicidal action against [%] MATIN [27] | further results |
| --- | --- | --- | --- | --- | --- | --- | --- | --- | --- | --- | --- | --- | --- | --- | --- | --- | --- | --- | --- | --- | --- |
| CC(C)C(C#N)NC(=O)C1C=CC(NC(=O)C2(C)CC(c3cc(F)cc(F)c3)=NO2)C1 (mixture of isomers) [II-12] | 90% | 80% | 80% | 80% | 90% | 80% | 90% | 90% | 80% | 90% | 80% | 80% | 100% | 90% | 90% | – | – | – | – | – | Herbicidal action against [%] ABUTH [1]: 80%; Herbicidal action against [%] ABUTH [4]: 80%; Herbicidal action against [%] PHBPU [14]: 80%; Herbicidal action against [%] VERPE [19]: 80% |
| CN(C)C(=O)C1=CCC(NC(=O)C2(C)CC(c3cccc(F)c3)=NO2)C1 (mixture of isomers) [IV-02] | 100% | – | 80% | 90% | 100% | 90% | – | 90% | – | 90% | – | – | 100% | – | 100% | 80% | 90% | 100% | – | – | Herbicidal action against [%] ABUTH [1]: 80%; Herbicidal action against [%] VERPE [22]: 90% |
| CC1(C(=O)NC2CC=C(C(=O)NS(C)(=O)=O)C2)CC(c2cccc(F)c2)=NO1 (mixture of isomers) [IV-07] | 80% | 80% | 80% | 90% | 100% | 80% | 90% | 100% | 90% | 100% | 80% | 80% | 80% | 90% | 90% | 90% | – | 90% | 80% | 80% | Herbicidal action against [%] HORMU [24]: 90%; Herbicidal action against [%] VIOTR [26]: 80%; Herbicidal action against [%] PHBPU [14]: 80%; Herbicidal action against [%] VERPE [19]: 80% |
| CC1(C(=O)N[C@H]2C=C[C@@H](C(=O)O)C2)CC(c2cccc(F)c2)=NO1 (some centres unmarked) [Example I-002] | 90% | – | – | 80% | 90% | 80% | 90% | 100% | 80% | 100% | 80% | 80% | 90% | 90% | 100% | 90% | 90% | 80% | 80% | 80% | Herbicidal action against [%] PHBPU [14]: 80%; Herbicidal action against [%] MATIN [28]: 80% |
| COC(=O)[C@@H]1C=C[C@H](NC(=O)C2(C)CC(c3cccc(F)c3)=NO2)C1 (some centres unmarked) [Example I-004] | 80% | 80% | – | – | 100% | 90% | 80% | 100% | 80% | 100% | 90% | 80% | 100% | 80% | 90% | 90% | 100% | – | 80% | 80% | – |
| C=CC1(C(=O)NC2C=CC(C(=O)OC)C2)CC(c2cc(F)cc(F)c2)=NO1 (centres unmarked) [Example I-012] | 100% | 90% | 80% | 90% | 100% | 90% | 80% | 100% | 90% | 100% | 100% | 90% | 90% | 90% | 100% | 90% | 100% | 90% | 90% | 90% | Herbicidal action against [%] ABUTH [1]: 90%; Herbicidal action against [%] HORMU [24]: 100%; Herbicidal action against [%] ABUTH [4]: 80%; Herbicidal action against [%] VIOTR [26]: 80%; Herbicidal action against [%] VERPE [22]: 100%; Herbicidal action against [%] PHBPU [14]: 90%; Herbicidal action against [%] MATIN [28]: 90%; Herbicidal action against [%] VERPE [19]: 80% |
| CONC(=O)[C@@H]1C=C[C@H](NC(=O)C2(C)CC(c3cc(F)cc(F)c3)=NO2)C1 (some centres unmarked) [II-02] | 100% | 80% | – | 90% | 90% | 90% | 90% | 100% | 80% | 100% | 80% | 80% | 100% | 80% | 90% | 90% | 80% | – | 80% | 90% | – |
| CCONC(=O)[C@@H]1C=C[C@H](NC(=O)C2(C)CC(c3cccc(F)c3)=NO2)C1 (some centres unmarked) [II-04] | 100% | – | – | – | 100% | 80% | 80% | 100% | 80% | 90% | 80% | 80% | 90% | 80% | 90% | – | 90% | 90% | 80% | 80% | – |
